Assays:
[1] = molar heat capacity at saturation pressure; conditions: Vacuum adiabatic calorimetry
[2] = Molar enthalpy of transition or fusion; conditions: Crystal; Adiabatic calorimetry

O=C1c2ccccc2-c2ccccc21 [9(9H)-fluorenone]
molar heat capacity [J/K/mol], [1]
Conditions | Crystal | Liquid
4.566 K | 0.46 | –
5 K | 0.6 | –
5.528 K | 0.77 | –
6.434 K | 1.22 | –
7.474 K | 1.88 | –
8.581 K | 2.71 | –
9.685 K | 3.71 | –
10 K | 4.02 | –
10.85 K | 4.87 | –
12.11 K | 6.26 | –
13.44 K | 7.86 | –
14.97 K | 9.678 | –
16.65 K | 11.82 | –
18.49 K | 14.15 | –
20 K | 16.01 | –
20.45 K | 16.55 | –
22.62 K | 19.26 | –
25.08 K | 22.19 | –
27.79 K | 25.34 | –
30 K | 27.82 | –
30.74 K | 28.64 | –
33.98 K | 32.05 | –
37.55 K | 35.61 | –
40 K | 37.94 | –
41.59 K | 39.4 | –
46.13 K | 43.45 | –
50 K | 46.83 | –
51.2 K | 47.85 | –
56.87 K | 52.2 | –
56.9 K | 52.18 | –
60 K | 54.38 | –
62.55 K | 56.09 | –
62.62 K | 56.16 | –
68.7 K | 60.3 | –
70 K | 61.14 | –
72.85 K | 62.96 | –
75.63 K | 64.74 | –
80 K | 67.46 | –
83.16 K | 69.38 | –
84.2 K | 70.02 | –
90 K | 73.43 | –
91.53 K | 74.32 | –
92.55 K | 74.86 | –
100 K | 79.14 | –
100.6 K | 79.46 | –
101.73 K | 80.16 | –
109.97 K | 84.81 | –
119.46 K | 90.1 | –
120 K | 90.41 | –
129.35 K | 95.77 | –
139.36 K | 101.53 | –
140 K | 101.91 | –
149.34 K | 107.42 | –
159.36 K | 113.33 | –
160 K | 113.73 | –
169.39 K | 119.4 | –
179.42 K | 125.52 | –
180 K | 125.91 | –
189.44 K | 131.93 | –
199.45 K | 138.28 | –
200 K | 138.65 | –
209.47 K | 144.93 | –
219.38 K | 151.48 | –
220 K | 151.91 | –
229.4 K | 158.17 | –
239.49 K | 164.92 | –
240 K | 165.3 | –
249.56 K | 172.03 | –
259.56 K | 178.91 | –
260 K | 179.23 | –
269.56 K | 185.84 | –
279.57 K | 192.92 | –
280 K | 193.1 | –
289.32 K | 199.64 | –
296.08 K | 204.14 | –
298.15 K | 205.82 | –
299.29 K | 206.68 | –
300 K | 207.11 | –
305.5 K | 210.87 | –
308.47 K | 212.74 | –
309.21 K | 213.37 | –
315.7 K | 218.21 | –
316.59 K | 218.89 | –
320 K | 221.01 | –
324.75 K | 224.49 | –
325.3 K | 224.82 | –
332.95 K | 230.04 | –
335.34 K | 231.75 | –
340 K | 235.18 | 282.8
340.05 K | – | 282.82
341.17 K | 235.83 | –
345.34 K | 238.85 | –
349.26 K | – | 287
349.41 K | 242.52 | –
356.52 K | 247.86 | 290.4
359.51 K | – | 291.82
360 K | – | 291.97
363.97 K | – | 293.73
364.32 K | – | 293.78
367.03 K | – | 295.01
373.93 K | – | 298.26
380 K | – | 301.01
386.08 K | – | 303.75
398.35 K | – | 309.31
400 K | – | 310.04
410.74 K | – | 314.78
420 K | – | 318.92
423.26 K | – | 320.37
435.5 K | – | 325.69
440 K | – | 327.65
447.89 K | – | 331.01
460 K | – | 336.07
460.14 K | – | 336.12
472.54 K | – | 341.25
477.16 K | – | 343.14
480 K | – | 344.22
487.83 K | – | 347.32
490.73 K | – | 348.64
499.62 K | – | 352.16
500 K | – | 352.28
505.44 K | – | 354.68
509.99 K | – | 356.21
518.82 K | – | 359.99
519.26 K | – | 360.18
520 K | – | 360.47

Conditions | Molar enthalpy of transition or fusion [kJ/mol]
[2] | 16.36
